From publication PMC7281206, “Cysteine Cathepsins Inhibition Affects Their Expression and Human Renal Cancer Cell Phenotype” (Cancers, 2020)
*: point of attachment. CH2F = FC*

Columns and labels:
human recombinant CtsL = experiment: Fluorescent protease activity assay, recombinant CtsL; assay type: biochemical; settings: 20 nM CtsL, 50 μM Ac-PLVQ-AMC, inhibitor 2 μM; 0.1 M sodium acetic buffer pH 4.6, 12 min, Ex/Em 353/442 nm
Method: Ac-PLVE-FMK and Ac-VLPE-FMK inhibitory properties were evaluated against human recombinant CtsL and B. These recombinant enzymes were expressed in E. coli via plasmid transformation and further purification, using nickel-nitrilotriacetic acid (Ni-NTA) sepharose. Gel zymography assay was used to provide a preliminary evaluation of the ability of these recombinant proteins to degrade the gelatin substrate previously embedded in the gel (Supplementary Figure S1). Following Coomassie staining, the Cts were detectable as single bands. As expected, a translucent area was evident, due to the substrate digestion in the proximity of the proteins. Then, the recombinant proteins were tested for their ability to digest the Triticain-α substrate Ac-PLVQ via fluorescent protease activity assay, previously optimized by our group. This probe was conjugated with the fluorogenic chromophore 7-amino-4-methylcoumarin (Ac-PLVQ-AMC). After proteolytic cleavage, it emits a detectable fluorescent signal.
Total RNA extract from retinoblastoma […] cells was used to obtain cDNA. A pair of oligonucleotides ([…] and […]) was used for the amplification of DNA fragment containing CtsB, the product of which was ligated into pET15b (Merck Millipore, Billerica, MA, USA) using NdeI and XhoI. DNA fragment containing CtsL was amplified using a pair of oligonucleotides ([…] and […]) and ligated into pET28a (+) (Merck Millipore, Billerica, MA, USA) using NheI and HindIII. […]
The activity of recombinant CtsL and B was detected by the hydrolysis of the fluorogenic substrate Ac-Pro-Leu-Val-Gln- 7-amino-4-methylcoumarin (AMC) (Pepmic Suzhou Jiangsu, China). […] The substrate was added to a final concentration of 50 μM, and its hydrolysis was continuously measured for 12 min using a CLARIOstar® Plus plate reader (BMG Labtech Ortenberg Baden-Württemberg, Germany) at excitation and emission wavelengths of 353 and 442 nm, respectively.

769-P cells = experiment: Cell viability with paclitaxel (MTT), 769-P; assay type: cell-based, human; settings: peptide 20 µM combined with PXT 100 nM; versus PXT alone
Method: (§1) To evaluate the inhibitory properties of the peptides directly on the human renal cancer cells, we firstly assessed the impact of Ac-PLVE-FMK and Ac-VLPE-FMK on the cell viability of 769-P and A498 cells to determine the working concentrations for further experiments. […] Further experiments were performed using a concentration of 20 μM. To understand if the peptides could affect the activity of caspase proteases, we tested their effect on cell viability in combination with the chemotherapeutic paclitaxel (PXT) in both the cell lines. […] Next, we evaluated the effect of the peptides on renal cancer cell proteolytic activity against the fluorogenic probe Ac-PLVQ-AMC. In this case, 769-p and A498 cells were treated for 30 min with Ac-PLVE-FMK or Ac-VLPE-FMK and were then exposed for 10 min to the substrate Ac-PLVQ-AMC prior fluorescence microscopy analysis (Figure 3c,d).
The cell number was evaluated by counting viable cells using the MTT (3-(4,5-dimethylthiazol-2-yl)-2,5-diphenyltetrazolium bromide) colorimetric assay. A total of 2 × 10^4 cells/well were seeded on independent 96-well plates for each time point (0, 24, 48, and 72 h), with five replicates and treated with two inhibitors (2.5–250 μM). Then, 10 µL of the MTT reagent was added to each well, and cells were incubated for another 5 h. Next, the absorbance value was measured using a CLARIOstar® Plus plate reader (BMG Labtech, Ortenberg, Germany) at 490 nm. Triplicate wells were assayed, and S.D.s were determined.
Figure S3. Combined effect of PXT and the inhibitors on 769‐P proliferation: 769‐P cells were treated with 100 nM of PXT alone or in combination with 20 μM of Ac‐PLVE and Ac‐VLPE and cell proliferation was measured after 24, 48, and 72 h via MTT assay. Data represent the mean (± S.D.) of three independent experiments, each performed in triplicate.
Figure S4. Spheroids size and circularity: (a,b) size and circularity of 769‐P and (c,d) A498 cells upon treatment with Ac‐PLVE‐FMK and Ac‐VLPE‐FMK. Data represent the mean (± S.D.) of three independent experiments, each performed in triplicate. […]

[1] = tested on: 769-P cells (proteolytic activity); experiment: Cell proteolytic activity towards Ac-PLVQ-AMC, 769-P; assay type: cell-based, human; settings: 30 min peptide, then 10 min Ac-PLVQ-AMC; fluorescence microscopy and fluorimetric analysis
Method: as §1
Figure 3 The effect of the peptide inhibitors on human 769-P and A498 renal cancer cell proliferation and proteolytic activity. […] Cell proliferation was measured after 24, 48, and 72 h via MTT (3-(4,5-dimethylthiazol-2-yl)-2,5-diphenyltetrazolium bromide) assay. […] (c) Fluorescence microscopy evaluation and quantification of the cell proteolytic activity in 769-P and (d) A498 cells towards the fluorogenic substrate Ac-PLVQ-AMC in the absence or presence of Ac-PLVE-FMK and Ac-VLPE-FMK. […]

| Substance | Inhibition of Ac-PLVQ-AMC cleavage (fluorescent signal) (human recombinant CtsL) | Effect on cell viability in combination with PXT (769-P cells) | Inhibition of probe degradation (cell proteolytic activity) [1] |
| --- | --- | --- | --- |
| Ac-PLVE-CH2F [Ac-PLVE-FMK] | the intensity of the fluorescent signal was significantly affected | no significant differences were observed | significantly inhibited the probe degradation |
| Ac-VLPE-CH2F [Ac-VLPE-FMK] | the intensity of the fluorescent signal was significantly affected | no significant differences were observed | significantly inhibited the probe degradation |
